These results are taken from US20080175794A1, “Substituted Pyridazinyl- and Pyrimidinyl-Quinolin-4-Ylamine Analogues” (NEUROGEN CORPORATION, priority 2005, published 2008).

The assay has as its target T1, human capsaicin receptor (Homo sapiens, UniProt Q8NER1).
T1 construct: expressed in transfected cells
Put plainly: Calcium mobilization assay, determination of antagonist activity (Example 6). The settings on record: assay provided in Example 6, cells expressing human capsaicin receptor, capsaicin at EC50. Format: cell-based. The protocol: A cDNA encoding full length human capsaicin receptor (SEQ ID NO:1, 2 or 3 of U.S. Pat. No. 6,482,611) is subcloned in the plasmid pBK-CMV (Stratagene, La Jolla, Calif.) for recombinant expression in mammalian cells.
Human embryonic kidney (HEK293) cells are transfected with the pBK-CMV expression construct encoding the full length human capsaicin receptor using standard methods. The transfected cells are selected over two weeks in media containing G418 (400 μg/ml) to obtain a pool of stably transfected cells. Independent clones are isolated from this pool by limiting dilution to obtain clonal stable cell lines for use in subsequent experiments.
Cells transfected with expression plasmids (as described in Example 4) and thereby expressing human capsaicin receptor are seeded and grown to 70-90% confluency in FALCON black-walled, clear-bottomed 96-well plates (#3904, BECTON-DICKINSON, Franklin Lakes, N.J.). The culture medium is emptied from the 96 well plates and FLUO-3 AM calcium sensitive dye (Molecular Probes, Eugene, Oreg.) is added to each well (dye solution: 1 mg FLUO-3 AM, 440 μL DMSO and 440 μl 20% pluronic acid in DMSO, diluted 1:250 in Krebs-Ringer HEPES (KRH) buffer (25 mM HEPES, […], 0.96 mM NaH2PO4, 1 mM MgSO4, 2 mM CaCl2, 5 mM glucose, 1 mM probenecid, pH 7.4), 50 μl diluted solution per well). Plates are covered with aluminum foil and incubated at 37° C. for 1-2 hours in an environment containing 5% CO2. After the incubation, the dye is emptied from the plates, and the cells are washed once with KRH buffer, and resuspended in KRH buffer.
To measure the ability of a test compound to agonize or antagonize a calcium mobilization response in cells expressing capsaicin receptors to capsaicin or other vanilloid agonist, the EC50 of the agonist capsaicin is first determined. An additional 20 μl of KRH buffer and 1 μl DMSO is added to each well of cells, prepared as described above. 100 μl capsaicin in KRH buffer is automatically transferred by the FLIPR instrument to each well. Capsaicin-induced calcium mobilization is monitored using either FLUOROSKAN ASCENT (Labsystems; Franklin, Mass.) or FLIPR (fluorometric imaging plate reader system; Molecular Devices, Sunnyvale, Calif.) instruments. Data obtained between 30 and 60 seconds after agonist application are used to generate an 8-point concentration response curve, with final capsaicin concentrations of 1 nM to 3 μM. KALEIDAGRAPH software (Synergy Software, Reading, Pa.) is used to fit the data to the equation: […]
Test compounds are dissolved in DMSO, diluted in 20 μl KRH buffer so that the final concentration of test compounds in the assay well is between […] and 5 μM, and added to cells prepared as described above. The 96 well plates containing prepared cells and test compounds are incubated in the dark at room temperature for 0.5 to 6 hours. It is important that the incubation not continue beyond 6 hours. Just prior to determining the fluorescence response, 100 μl capsaicin in KRH buffer at twice the EC50 concentration determined as described above is automatically added by the FLIPR instrument to each well of the 96 well plate for a final sample volume of 200 μl and a final capsaicin concentration equal to the EC50. The final concentration of test compounds in the assay wells is between 1 μM and 5 μM. […] The concentration of antagonist required to provide a 50% decrease, relative to the response observed in the presence of capsaicin and without antagonist, is the IC50 for the antagonist, and is preferably below 1 micromolar, 100 nanomolar, 10 nanomolar or 1 nanomolar.
(Calcium assays in cells follow changes in intracellular calcium, usually with a dye or a luminescent sensor.)

T1 sequence (Q8NER1 whole entry): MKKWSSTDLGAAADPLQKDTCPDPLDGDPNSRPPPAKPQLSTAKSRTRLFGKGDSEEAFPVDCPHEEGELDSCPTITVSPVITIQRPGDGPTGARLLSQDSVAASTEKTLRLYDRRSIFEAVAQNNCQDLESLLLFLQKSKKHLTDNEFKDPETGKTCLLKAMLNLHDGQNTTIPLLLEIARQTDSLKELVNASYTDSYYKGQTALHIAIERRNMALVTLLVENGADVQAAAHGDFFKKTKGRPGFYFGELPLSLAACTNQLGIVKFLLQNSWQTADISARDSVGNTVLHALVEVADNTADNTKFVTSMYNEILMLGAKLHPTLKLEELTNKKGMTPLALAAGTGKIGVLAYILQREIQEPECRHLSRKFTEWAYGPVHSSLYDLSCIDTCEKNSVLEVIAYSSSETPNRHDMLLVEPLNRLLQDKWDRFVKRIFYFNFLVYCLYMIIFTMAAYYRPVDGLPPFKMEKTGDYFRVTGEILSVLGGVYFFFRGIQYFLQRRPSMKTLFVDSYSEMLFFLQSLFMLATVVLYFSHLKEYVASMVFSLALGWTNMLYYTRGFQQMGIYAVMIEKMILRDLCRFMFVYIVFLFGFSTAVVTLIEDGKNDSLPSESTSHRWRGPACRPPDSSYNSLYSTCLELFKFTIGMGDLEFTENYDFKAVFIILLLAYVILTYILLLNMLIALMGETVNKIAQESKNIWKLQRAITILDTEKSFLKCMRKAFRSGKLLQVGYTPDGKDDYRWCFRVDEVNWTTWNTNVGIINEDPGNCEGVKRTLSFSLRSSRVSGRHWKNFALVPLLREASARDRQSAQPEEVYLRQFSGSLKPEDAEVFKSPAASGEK

As for `COCCN(C)c1cc(C(F)(F)F)c(-c2cnc3c(Nc4ccc(C(F)(F)F)cn4)ccnc3n2)nn1` [Compound 181, 3-{6-[(2-methoxyethyl)(methyl)amino]-4-(trifluoromethyl)pyridazin-3-yl}-N-[5-(trifluoromethyl)pyridin-2-yl]pyrido[2,3-b]pyrazin-8-amine], the half-inhibitory concentration (IC50) – broadly, the point on the concentration scale where inhibition reaches its midpoint – (Table III) is less than 1 µM. Still for that read-out and setting: as for `CCOc1cc(C(F)(F)F)c(-c2cnc3c(Nc4ccc(C(F)(F)F)cn4)ccnc3n2)nn1` [Compound 50, 3-[6-ethoxy-4-(trifluoromethyl)pyridazin-3-yl]-N-[5-(trifluoromethyl)pyridin-2-yl]pyrido[2,3-b]pyrazin-8-amine], the figure is less than 1 µM; as for `FC(F)(F)c1ccc(Nc2ccnc3nc(-c4nnc(N5CCCCCC5)cc4C(F)(F)F)cnc23)nc1` [Compound 178, 3-[6-azepan-1-yl-4-(trifluoromethyl)pyridazin-3-yl]-N-[5-(trifluoromethyl)pyridin-2-yl]pyrido[2,3-b]pyrazin-8-amine], less than 1 µM; as for `CNc1cc(C(F)(F)F)c(-c2cnc3c(Nc4ccc(C(F)(F)F)cn4)ccnc3n2)nn1` [Compound 100, 3-[6-(methylamino)-4-(trifluoromethyl)pyridazin-3-yl]-N-[5-(trifluoromethyl)pyridin-2-yl]pyrido[2,3-b]pyrazin-8-amine], less than 1 µM.

Consider `CN(CC(=O)O)c1cc(C(F)(F)F)c(-c2cnc3c(Nc4ccc(C(F)(F)F)cn4)ccnc3n2)nn1` [Compound 56, N-methyl-N-[5-(trifluoromethyl)-6-(8-{[5-(trifluoromethyl)pyridin-2-yl]amino}pyrido[2,3-b]pyrazin-3-yl)pyridazin-3-yl]glycine], for which the half-maximal inhibitory concentration (IC50) (Table III) is less than 1 µM. On to `FC(F)(F)c1ccc(Nc2ccnc3nc(-c4nnccc4C(F)(F)F)cnc23)nc1` [Compound 2, N-[5-(Trifluoromethyl)pyridin-2-yl]-3-[4-(trifluoromethyl)pyridazin-3-yl]pyrido[2,3-b]pyrazin-8-amine], for which the IC50 was less than 1 µM. For `CCCN(CCC)CCNc1cc(C(F)(F)F)c(-c2cnc3c(Nc4ccc(C(F)(F)F)cn4)ccnc3n2)nn1` [Compound 83, N,N-dipropyl-N′-[5-(trifluoromethyl)-6-(8-{[5-(trifluoromethyl)pyridin-2-yl]amino}pyrido[2,3-b]pyrazin-3-yl)pyridazin-3-yl]ethane-1,2-diamine], the IC50 (Table III) was less than 1 µM. Take `CC(C)N(CCO)c1cc(C(F)(F)F)c(-c2cnc3c(Nc4ccc(C(F)(F)F)cn4)ccnc3n2)nn1` [Compound 197, 2-{isopropyl[5-(trifluoromethyl)-6-(8-{[5-(trifluoromethyl)pyridin-2-yl]amino}pyrido[2,3-b]pyrazin-3-yl)pyridazin-3-yl]amino}ethanol]: the IC50 (Table III) was less than 1 µM. The same measure, in the same setting: as for `CS(=O)(=O)c1ccc(Nc2ccnc3nc(-c4nnccc4C(F)(F)F)cnc23)nc1` [Compound 47, N-[5-(methylsulfonyl)-2-pyridinyl]-3-[4-(trifluoromethyl)-3-pyridazinyl]pyrido[2,3-b]pyrazin-8-amine], the figure is less than 1 µM; as for `CCC(C)Nc1cc(C(F)(F)F)c(-c2cnc3c(Nc4ccc(C(F)(F)F)cn4)ccnc3n2)nn1` (stereo not shown) [Compound 108, 3-[6-(sec-butylamino)-4-(trifluoromethyl)pyridazin-3-yl]-N-[5-(trifluoromethyl)pyridin-2-yl]pyrido[2,3-b]pyrazin-8-amine], less than 1 µM; as for `C=CCNc1cc(C(F)(F)F)c(-c2cnc3c(Nc4ccc(C(F)(F)F)cn4)ccnc3n2)nn1` [Compound 152, 3-[6-(allylamino)-4-(trifluoromethyl)pyridazin-3-yl]-N-[5-(trifluoromethyl)pyridin-2-yl]pyrido[2,3-b]pyrazin-8-amine], less than 1 µM. Regarding `CN(C)CCN(C)c1cc(C(F)(F)F)c(-c2cnc3c(Nc4ccc(C(F)(F)F)cn4)ccnc3n2)nn1` [Compound 150, N,N,N′-trimethyl-N′-[5-(trifluoromethyl)-6-(8-{[5-(trifluoromethyl)pyridin-2-yl]amino}pyrido[2,3-b]pyrazin-3-yl)pyridazin-3-yl]ethane-1,2-diamine], the IC50 (Table III) is less than 1 µM. `CN1CCN(CCCNc2cc(C(F)(F)F)c(-c3cnc4c(Nc5ccc(C(F)(F)F)cn5)ccnc4n3)nn2)CC1` [Compound 81, 3-[6-{[3-(4-methylpiperazin-1-yl)propyl]amino}-4-(trifluoromethyl)pyridazin-3-yl]-N-[5-(trifluoromethyl)pyridin-2-yl]pyrido[2,3-b]pyrazin-8-amine]: the IC50 (Table III) is less than 1 µM. `OCCOc1cc(C(F)(F)F)c(-c2cnc3c(Nc4ccc(C(F)(F)F)cn4)ccnc3n2)nn1` [Compound 63, 2-{[5-(trifluoromethyl)-6-(8-{[5-(trifluoromethyl)pyridin-2-yl]amino}pyrido[2,3-b]pyrazin-3-yl)pyridazin-3-yl]oxy}ethanol]: under “Table III”, the half-inhibitory concentration (IC50) was less than 1 µM. Consider `CN(C)CCCOc1cc(C(F)(F)F)c(-c2cnc3c(Nc4ccc(C(F)(F)F)cn4)ccnc3n2)nn1` [Compound 64, 3-{6-[3-(dimethylamino)propoxy]-4-(trifluoromethyl)pyridazin-3-yl}-N-[5-(trifluoromethyl)pyridin-2-yl]pyrido[2,3-b]pyrazin-8-amine], for which the IC50 (Table III) is less than 1 µM. On the same count and under the same terms, the figure for `CCCC(CO)Nc1cc(C(F)(F)F)c(-c2cnc3c(Nc4ccc(C(F)(F)F)cn4)ccnc3n2)nn1` (stereo not shown) [Compound 119, 2-{[5-(trifluoromethyl)-6-(8-{[5-(trifluoromethyl)pyridin-2-yl]amino}pyrido[2,3-b]pyrazin-3-yl)pyridazin-3-yl]amino}pentan-1-ol] is less than 1 µM; for `CCN(CCN(C)C)c1cc(C(F)(F)F)c(-c2cnc3c(Nc4ccc(C(F)(F)F)cn4)ccnc3n2)nn1` [Compound 94, N-ethyl-N′,N′-dimethyl-N-[5-(trifluoromethyl)-6-(8-{[5-(trifluoromethyl)pyridin-2-yl]amino}pyrido[2,3-b]pyrazin-3-yl)pyridazin-3-yl]ethane-1,2-diamine] it is less than 1 µM; for `CCN(c1cc(C(F)(F)F)c(-c2cnc3c(Nc4ccc(C(F)(F)F)cn4)ccnc3n2)nn1)C(C)C` [Compound 128, 3-{6-[ethyl(isopropyl)amino]-4-(trifluoromethyl)pyridazin-3-yl}-N-[5-(trifluoromethyl)pyridin-2-yl]pyrido[2,3-b]pyrazin-8-amine] it is less than 1 µM. As to `CCCCN(C)c1cc(C(F)(F)F)c(-c2cnc3c(Nc4ccc(C(F)(F)F)cn4)ccnc3n2)nn1` [Compound 122, 3-{6-[butyl(methyl)amino]-4-(trifluoromethyl)pyridazin-3-yl}-N-[5-(trifluoromethyl)pyridin-2-yl]pyrido[2,3-b]pyrazin-8-amine], under “Table III”, the IC50 is less than 1 µM. On the same count and under the same terms, as for `CC(CN(C)C)Nc1cc(C(F)(F)F)c(-c2cnc3c(Nc4ccc(C(F)(F)F)cn4)ccnc3n2)nn1` (stereo not shown) [Compound 82, N1,N1-dimethyl-N2-[5-(trifluoromethyl)-6-(8-{[5-(trifluoromethyl)pyridin-2-yl]amino}pyrido[2,3-b]pyrazin-3-yl)pyridazin-3-yl]propane-1,2-diamine], the figure is less than 1 µM; as for `FC(F)(F)c1ccc(Nc2ccnc3nc(-c4nnc(NCC5CCCO5)cc4C(F)(F)F)cnc23)nc1` (stereo not shown) [Compound 112, 3-{6-[(tetrahydrofuran-2-ylmethyl)amino]-4-(trifluoromethyl)pyridazin-3-yl}-N-[5-(trifluoromethyl)pyridin-2-yl]pyrido[2,3-b]pyrazin-8-amine], less than 1 µM; as for `COc1nc(Nc2ccnc3nc(-c4nnccc4C(F)(F)F)cnc23)ccc1C(F)(F)F` [Compound 49, N-[6-methoxy-5-(trifluoromethyl)pyridin-2-yl]-3-[4-(trifluoromethyl)pyridazin-3-yl]pyrido[2,3-b]pyrazin-8-amine], less than 1 µM.
